# Assays:
# KURAMOCHI = assay: drug sensitivity score (DSS2) on cancer cell count; higher = more sensitive; extreme values may be limits of the assay; details: 72 h
# Method in brief: (§1)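 Ovarian cancer cells were cultured either alone or directly mixed 1:1 with lung or skin fibroblasts and plated onto 384-well plates acoustically pre-spotted with 528 approved and investigational compounds at 5 concentrations for 72 h of treatment. After fixation, cells were immunostained for CK8/18 with Hoechst and imaged at 10× across 4 fields to count cancer cells. Responses were fitted with 4-parameter logistic curves, and from these fits a drug sensitivity score was derived in Breeze, with screen quality assessed by Z'.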
# OVCAR8 = assay: as above; details: 72 h
# Method in brief: as §1
# [1] = co-cultured fibroblast: BJHTERT
# [2] = co-cultured fibroblast: none (monoculture)
SMILES,drug sensitivity score (KURAMOCHI; [1]),drug sensitivity score (KURAMOCHI; co-cultured fibroblast: WI38),drug sensitivity score (KURAMOCHI; [2]),drug sensitivity score (OVCAR8; [1]),drug sensitivity score (OVCAR8; co-cultured fibroblast: WI38),drug sensitivity score (OVCAR8; [2])
CC(=O)O[C@]1(C(C)=O)CC[C@H]2[C@@H]3C=C(C)C4=CC(=O)CC[C@]4(C)[C@H]3CC[C@@]21C [Megestrol acetate],0 DSS,6 DSS,0 DSS,0 DSS,0 DSS,0 DSS
CCN(CC)CCCC(C)Nc1c2ccc(Cl)cc2nc2ccc(OC)cc12 (stereo unspecified) [Mepacrine],13.8 DSS,13.8 DSS,19.1 DSS,19.8 DSS,14.2 DSS,14.4 DSS
S=c1[nH]cnc2nc[nH]c12 [Mercaptopurine],0.1 DSS,0.3 DSS,0 DSS,0 DSS,0 DSS,5.4 DSS
Cc1ccc(C(=O)Nc2ccc(Oc3cc4cnn(C)c4cc3-c3cn[nH]c3)c(F)c2)c(=O)n1-c1ccc(F)cc1 [Merestinib],0 DSS,1.5 DSS,1.5 DSS,0 DSS,0 DSS,0.1 DSS
CN(C)C(=N)NC(=N)N [Metformin],0 DSS,0 DSS,0 DSS,0 DSS,0 DSS,0 DSS
CN(Cc1cnc2nc(N)nc(N)c2n1)c1ccc(C(=O)N[C@@H](CCC(=O)O)C(=O)O)cc1 [Methotrexate],5.9 DSS,0 DSS,19.7 DSS,12.3 DSS,12.4 DSS,27.7 DSS
C[C@H]1C[C@@H]2[C@H]([C@@H](O)C[C@@]3(C)[C@H]2CC[C@]3(O)C(=O)CO)[C@@]2(C)C=CC(=O)C=C12 [Methylprednisolone],0 DSS,0 DSS,9.8 DSS,0 DSS,0 DSS,8.1 DSS
CO[C@@H]1[C@H](N(C)C(=O)c2ccccc2)C[C@H]2O[C@]1(C)n1c3ccccc3c3c4c(c5c6ccccc6n2c5c31)C(=O)NC4 [Midostaurin],16.2 DSS,14.8 DSS,11.6 DSS,13.3 DSS,16.5 DSS,13 DSS
CNC(=O)c1nn(C)c2c1C(C)(C)Cc1cnc(Nc3ccc(N4CCN(C)CC4)cc3)nc1-2 [Milciclib],11.2 DSS,9.8 DSS,10 DSS,13.9 DSS,12.3 DSS,11.4 DSS
CCCCCCCCCCCCCCCCOP(=O)([O-])OCC[N+](C)(C)C [Miltefosine],4.4 DSS,7.4 DSS,5 DSS,8.4 DSS,7.3 DSS,5.7 DSS
CO[C@@]12[C@H](COC(N)=O)C3=C(C(=O)C(C)=C(N)C3=O)N1C[C@@H]1N[C@@H]12 [Mitomycin C],0 DSS,0 DSS,12.4 DSS,4.2 DSS,0.8 DSS,3.1 DSS
Clc1ccc(C(c2ccccc2Cl)C(Cl)Cl)cc1 (stereo unspecified) [Mitotane],0 DSS,0 DSS,0 DSS,0 DSS,0 DSS,0 DSS
O=C1c2c(O)ccc(O)c2C(=O)c2c(NCCNCCO)ccc(NCCNCCO)c21 [Mitoxantrone],17.1 DSS,13.3 DSS,23.6 DSS,20.4 DSS,17 DSS,18.1 DSS
CCS(=O)(=O)Nc1ccc(Oc2ccc(F)cc2F)c(-c2cn(C)c(=O)c3[nH]ccc23)c1 [Mivebresib],22.6 DSS,21.7 DSS,17.5 DSS,35.4 DSS,26.9 DSS,30.9 DSS
Nc1ccccc1NC(=O)c1ccc(CNc2nccc(-c3cccnc3)n2)cc1 [Mocetinostat],10.4 DSS,13.9 DSS,13.7 DSS,14 DSS,19.3 DSS,21.7 DSS
CCNC(=O)C[C@@H]1N=C(c2ccc(Cl)cc2)c2cc(OC)ccc2-n2c(C)nnc21 [Molibresib],6.5 DSS,9.9 DSS,6.7 DSS,12.2 DSS,5.8 DSS,13.6 DSS
N#CCNC(=O)c1ccc(-c2ccnc(Nc3ccc(N4CCOCC4)cc3)n2)cc1 [Momelotinib],7.5 DSS,10.1 DSS,7.6 DSS,11.3 DSS,10.9 DSS,10.1 DSS
CC1(C)CNc2cc(NC(=O)c3cccnc3NCc3ccncc3)ccc21 [Motesanib],0.3 DSS,0.2 DSS,0 DSS,0 DSS,1 DSS,2 DSS
CCCN(CCC)C(=O)C1=Cc2ccc(-c3ccc(C(=O)N4CCCC4)cc3)cc2N=C(N)C1 [Motolimod],1.3 DSS,0 DSS,1 DSS,0 DSS,0 DSS,2.4 DSS
FC(F)(F)c1ccc(/C=C/c2nc(COc3ccc(CCCCn4ccnn4)cc3)co2)cc1 [Mubritinib],5.6 DSS,0 DSS,0 DSS,16.9 DSS,0 DSS,5.5 DSS
Cc1cc(OCc2nnc(SC3CCCC3)n2-c2cccnc2)ccc1-c1ccc(S(C)(=O)=O)cc1 [NMS-873],9 DSS,9 DSS,8.9 DSS,5.8 DSS,4.7 DSS,10.3 DSS
COc1ccc(-c2ccc3ncc4c(c3c2)n(-c2ccc(N3CCNCC3)c(C(F)(F)F)c2)c(=O)n4C)cn1 [NVP-BGT226],18.2 DSS,19.5 DSS,18.3 DSS,19.5 DSS,12 DSS,21.7 DSS
Cc1ccc(C(=O)Nc2cccc(C(F)(F)F)c2)cc1Nc1nc(-c2cccnc2)nc2c1cnn2C [NVP-BHG712],5.8 DSS,6.7 DSS,8.9 DSS,0 DSS,6.8 DSS,7.5 DSS
COc1cc2c(cc1OC(C)C)[C@H](c1ccc(Cl)cc1)N(c1ccc(N(C)C[C@H]3CC[C@H](N4CCN(C)C(=O)C4)CC3)cc1)C(=O)C2 [NVP-CGM097],7.7 DSS,3.4 DSS,5.4 DSS,10.1 DSS,11.1 DSS,3.5 DSS
CN[C@@H](C)C(=O)N[C@H](C(=O)N1CCC[C@H]1c1nc(C(=O)c2ccc(F)cc2)cs1)C1CCCCC1 [NVP-LCL161],4 DSS,1.9 DSS,2.5 DSS,34.7 DSS,27.7 DSS,23.2 DSS
Cn1c(Nc2ccc(C(F)(F)F)cc2)nc2cc(Oc3ccnc(-c4ncc(C(F)(F)F)[nH]4)c3)ccc21 [NVP-RAF265],2.2 DSS,0.8 DSS,7.6 DSS,2.2 DSS,0 DSS,3.2 DSS
